Measured values taken from the NIST ThermoML archive (doi:10.1021/je600515j).
Numbers after ± are expanded uncertainties.

Assays:
[1] = relative permittivity at zero frequency (dimensionless); xn = mol fraction of the nth substance listed; details: 101 kPa, Liquid, dielectric analyzer
[2] = relative permittivity at zero frequency (dimensionless); details: 101.33 kPa, Liquid, dielectric analyzer

OCCNCCO [diethanolamine] + O
relative permittivity at zero frequency, [1]
Details	303.15 K	308.15 K	313.15 K	318.15 K	323.15 K	328.15 K
x1 = 0.2	52.65 ± 1.1	51.53 ± 1	49.58 ± 0.99	48.31 ± 0.97	46.78 ± 0.94	45.68 ± 0.91
x1 = 0.4	39.11 ± 0.78	38.06 ± 0.76	36.95 ± 0.74	35.81 ± 0.72	34.68 ± 0.69	33.73 ± 0.67
x1 = 0.6	30.57 ± 0.61	29.75 ± 0.6	28.91 ± 0.58	28.07 ± 0.56	27.36 ± 0.55	26.7 ± 0.53
x1 = 0.8	26.95 ± 0.54	26.41 ± 0.53	25.86 ± 0.52	25.42 ± 0.51	24.81 ± 0.5	24.13 ± 0.48

OCCN(CCO)CCO [triethanolamine]
[2]
Details	relative permittivity at zero frequency
303.15 K	28.11 ± 0.56
308.15 K	27.41 ± 0.55
313.15 K	26.73 ± 0.53
318.15 K	26.07 ± 0.52
323.15 K	25.41 ± 0.51
328.15 K	24.8 ± 0.5

CC(C)(N)CO [2-amino-2-methylpropan-1-ol] + O
relative permittivity at zero frequency, [1]
Details	303.15 K	308.15 K	313.15 K	318.15 K	323.15 K	328.15 K
x1 = 0.2	48.24 ± 0.96	47.33 ± 0.95	46.43 ± 0.93	45.46 ± 0.91	44.31 ± 0.89	43.13 ± 0.86
x1 = 0.4	33.65 ± 0.67	32.99 ± 0.66	32.33 ± 0.65	31.8 ± 0.64	31.15 ± 0.62	30.11 ± 0.6
x1 = 0.6	26.63 ± 0.53	26.17 ± 0.52	25.65 ± 0.51	25.14 ± 0.5	24.95 ± 0.5	24.37 ± 0.49
x1 = 0.8	23.35 ± 0.47	22.82 ± 0.46	22.28 ± 0.45	21.87 ± 0.44	21.42 ± 0.43	21.03 ± 0.42

CC(C)(N)CO [2-amino-2-methylpropan-1-ol]
[2]
Details	relative permittivity at zero frequency
303.15 K	20.59 ± 0.41
308.15 K	20.11 ± 0.4
313.15 K	19.69 ± 0.39
318.15 K	19.27 ± 0.39
323.15 K	18.88 ± 0.38
328.15 K	18.37 ± 0.37

OCCNCCO [diethanolamine]
[2]
Details	relative permittivity at zero frequency
303.15 K	24.69 ± 0.49
308.15 K	24.3 ± 0.49
313.15 K	23.86 ± 0.48
318.15 K	23.28 ± 0.47
323.15 K	22.63 ± 0.45
328.15 K	22.13 ± 0.44

CN(CCO)CCO [N-methyldiethanolamine] + O
relative permittivity at zero frequency, [1]
Details	303.15 K	308.15 K	313.15 K	318.15 K	323.15 K	328.15 K
x1 = 0.2	48.77 ± 0.98	47.54 ± 0.95	46.36 ± 0.93	45.14 ± 0.9	43.98 ± 0.88	42.68 ± 0.85
x1 = 0.4	33.92 ± 0.68	33.09 ± 0.66	32.16 ± 0.64	31.25 ± 0.63	30.37 ± 0.61	29.41 ± 0.59
x1 = 0.6	26.68 ± 0.53	26.03 ± 0.52	25.4 ± 0.51	24.69 ± 0.49	23.96 ± 0.48	23.21 ± 0.46
x1 = 0.8	23.44 ± 0.47	22.86 ± 0.46	22.31 ± 0.45	21.77 ± 0.44	21.15 ± 0.42	20.56 ± 0.41

CC(O)CNCC(C)O (stereo unspecified) [N-(2-hydroxypropyl)-2-hydroxy-1-propanamine]
[2]
Details	relative permittivity at zero frequency
303.15 K	13.87 ± 0.28
308.15 K	13.75 ± 0.28
313.15 K	13.62 ± 0.27
318.15 K	13.49 ± 0.27
323.15 K	13.36 ± 0.27
328.15 K	13.26 ± 0.27

CC(O)CNCC(C)O (stereo unspecified) [N-(2-hydroxypropyl)-2-hydroxy-1-propanamine] + O
relative permittivity at zero frequency, [1]
Details	303.15 K	308.15 K	313.15 K	318.15 K	323.15 K	328.15 K
x1 = 0.2	41.34 ± 0.83	40.27 ± 0.81	39.35 ± 0.79	38.46 ± 0.77	37.74 ± 0.75	37.16 ± 0.74
x1 = 0.4	24.52 ± 0.49	24 ± 0.48	23.48 ± 0.47	23 ± 0.46	22.52 ± 0.45	22.19 ± 0.44
x1 = 0.6	18.46 ± 0.37	18.15 ± 0.36	17.84 ± 0.36	17.53 ± 0.35	17.2 ± 0.34	16.97 ± 0.34
x1 = 0.8	16.65 ± 0.33	16.45 ± 0.33	16.26 ± 0.33	16.05 ± 0.32	15.83 ± 0.32	15.66 ± 0.31

OCCN(CCO)CCO [triethanolamine] + O
relative permittivity at zero frequency, [1]
Details	303.15 K	308.15 K	313.15 K	318.15 K	323.15 K	328.15 K
x1 = 0.2	49.25 ± 0.99	48.14 ± 0.96	47.23 ± 0.94	46.33 ± 0.93	45.45 ± 0.91	44.63 ± 0.89
x1 = 0.4	36.34 ± 0.73	35.44 ± 0.71	34.53 ± 0.69	33.6 ± 0.67	32.73 ± 0.65	31.93 ± 0.64
x1 = 0.6	31.48 ± 0.63	30.66 ± 0.61	29.85 ± 0.6	29.05 ± 0.58	28.25 ± 0.57	27.51 ± 0.55
x1 = 0.8	29.67 ± 0.59	28.92 ± 0.58	28.17 ± 0.56	27.43 ± 0.55	26.69 ± 0.53	26.04 ± 0.52

CN(CCO)CCO [N-methyldiethanolamine]
[2]
Details	relative permittivity at zero frequency
303.15 K	21.84 ± 0.44
308.15 K	21.33 ± 0.43
313.15 K	20.83 ± 0.42
318.15 K	20.32 ± 0.41
323.15 K	19.79 ± 0.4
328.15 K	19.28 ± 0.39

CC(O)CO (stereo unspecified) [1,2-propanediol]
[2]
Details	relative permittivity at zero frequency
303.15 K	27.87 ± 0.56
308.15 K	27.13 ± 0.54
313.15 K	26.43 ± 0.53
318.15 K	25.76 ± 0.52
323.15 K	25.08 ± 0.5
328.15 K	24.57 ± 0.49
